System: HLA-DQ2
Assay: Inhibition of IL-2 secretion by TCR transductants stimulated by α-gliadin peptides presented by HLA-DQ2 expressing K562 cells (ELISA)
Format: cell-based, human
Conditions: for DQ2 IL2 Maximal % Inhibition: IL-2 secretion, at the concentration given in brackets; for concentration at which the compound exhibited maximum % inhibition (DQ2 IL2): from dose-response curve, figure in brackets in the cell
Experimental: Three commercially available analogues of the DQ2 binding molecules of the invention were tested for their ability to inhibit stimulation of T cell receptor (TCR) transductants in the presence of HLA-DQ2 expressing cells presenting known α-gliadin epitopes.
Using a previously published in vitro assay (Ostrov D, et al. Methyldopa blocks MHC class II binding to disease specific antigens in autoimmune diabetes. J Clin Invest. 2018:128(5)) we measured the ability of these DQ2 binding analogues to inhibit interleukin-2 (IL-2) secretion by TCR transductants stimulated by α-gliadin peptides presented by HLA-DQ2. Individual TCR transductants (recognizing α I-gliadin or α II-gliadin) were cultured with a gliadin peptide plus the small molecule analogues in the presence of HLA-DQ2 expressing K562 cells serving as antigen presenting cells. TCR transductants cultured with no gliadin peptide served as the negative control, and incubation with an anti-CD3 antibody (eBioscience; clone 2C11) served as a positive control for the TCR transductant. Secreted IL-2 in the culture supernatant was measured using a highly sensitive enzyme-linked immunosorbent assay (ELISA). […] Assays for effects on cell viability and for specificity, assayed in the absence of gliadin peptide or in the presence of a stimulating anti-CD3 antibody, were performed. A=71-100%; B=41-70%; C=11-40%; D=0-10%, NT=Not tested.

[1] = TCR transductants (α I- or α II-gliadin) + gliadin peptide + HLA-DQ2 K562 cells
[2] = Table 2, TCR transductants + gliadin peptide + HLA-DQ2 K562 cells

| SMILES | DQ2 IL2 Maximal % Inhibition [1] | concentration at which the compound exhibited maximum % inhibition (DQ2 IL2) [µM] | DQ2 IL2 Maximal % Inhibition [2] | concentration at which the compound exhibited maximum % inhibition (DQ2 IL2) (Table 2) [µM] |
| --- | --- | --- | --- | --- |
| CC(C)c1ccc(C(=O)NC2CCc3nn(C4CCOCC4)c(=O)cc3C2)cc1 (stereo not drawn) [Compound 55] | A (A=71-100%) | 200 |  |  |
| CC(C)c1ccc(C(=O)NC2CCc3nn(C4CCC4)c(=O)cc3C2)cc1 (stereo not drawn) [Compound 56] | A (A=71-100%) | 200 |  |  |
| CC(C)c1ccc(C(=O)NC2CCc3nn(CC(F)(F)F)c(=O)cc3C2)cc1 (stereo not drawn) [Compound 57, 4-isopropyl-N-(3-oxo-2-(2,2,2-trifluoroethyl)-2,3,5,6,7,8-hexahydrocinnolin-6-yl)benzamide] | A (A=71-100%) | 200 |  |  |
| CC(C)c1ccc(C(=O)NC2CCc3nn(CC(C)(C)O)c(=O)cc3C2)cc1 (stereo not drawn) [Compound 58] | A (A=71-100%) | 200 |  |  |
| CC(C)c1ccc(C(=O)NC2CCc3nn(C4CCCC4)c(=O)cc3C2)cc1 (stereo not drawn) [Compound 59] | A (A=71-100%) | 200 |  |  |
| CCc1ccc(C(=O)NC2CCc3n[nH]c(=O)cc3C2)cc1 (stereo not drawn) [Compound 60] |  |  | A (A=71-100%) | 200 |
| Cn1nc2c(cc1=O)CC(NC(=O)c1ccc3ccccc3n1)CC2 (stereo not drawn) [Compound 61] |  |  | A (A=71-100%) | 200 |
| CC(C)Oc1ccc(C(=O)NC2CCc3nn(C)c(=O)cc3C2)cc1 (stereo not drawn) [Compound 62] |  |  | A (A=71-100%) | 200 |
| Cn1nc2c(cc1=O)CC(NC(=O)c1cccc(C(F)(F)F)c1)CC2 (stereo not drawn) [Compound 63] |  |  | A (A=71-100%) | 200 |
